Experimental data published in patent publication US8029764B2, “Methods for detection of colorectal cancer” (The Johns Hopkins University, priority 2001, dated 2011).

Test system: colorectal tissue transcripts
Assay: SAGE of normal, adenoma and cancer colorectal tissue (transcript tag counts)
Parameters: species or system human
Conditions: for AD1 (SAGE tag count): SAGE library AD1; for AD2 (SAGE tag count): SAGE library AD2; for CA1 (SAGE tag count): SAGE library CA1; for CA2 (SAGE tag count): SAGE library CA2; for NC1 (SAGE tag count): SAGE library NC1; for NC2 (SAGE tag count): SAGE library NC2
Description: In an effort to identify potential molecular markers of early colorectal tumors, we have here analyzed gene expression in benign and malignant colorectal tumors in an unbiased and comprehensive fashion. We used SAGE to analyze global gene expression in normal, benign and malignant colorectal tissue. SAGE is a gene expression profiling method that associates individual mRNA transcripts with 15-base tags derived from specific positions near their 3′ termini (3). The abundance of each tag provides a quantitative measure of the transcript level present within the mRNA population studied. SAGE is not dependent on pre-existing databases of expressed genes, and therefore provides an unbiased view of gene expression profiles. For the current study, SAGE libraries derived from two samples of normal colonic epithelium, two colorectal adenomas, and two colorectal cancers were analyzed.
SAGE. For the initial SAGE^3 of benign tumors, fresh adenomas were obtained from surgical specimens derived from FAP patients. Adenomas from FAP patients were employed because of the ready availability of small lesions and the certainty of inactivation of the APC pathway which initiates the formation of the majority of sporadic tumors. After histopathological verification of the neoplastic nature of the lesion (>70% neoplastic cells), total RNA was isolated by solubilizing the tissue in RNAgents Lysis Buffer (Promega, Madison, Wis.) followed by ultracentrifugation over a cesium chloride gradient. mRNA selection was performed from the purified total RNA using oligo(dT) cellulose (Life Technologies, Gaithersburg, Md.). […] Tags were extracted from the raw sequence data and, after excluding repeated ditags, linker sequences, and tags from the polyrnorphic Major Histocompatibility loci, the resulting tag libraries were compared and statistical analysis performed using SAGE software, version 4.0. Data from the libraries are publicly available at the Uniform Resource Locator (URL) address for the http file type found on the www host server that has a domain name of ncbi.nlm.nih.gov, and a path to the directory SAGE, and detailed SAGE protocols are available at the Uniform Resource Locator (URL) address for the http file type found on the www host server that has a domain name of sagenet.org, and file name of sage_protocol.htn.

Row | Sequence | AD1 (SAGE tag count) | AD2 (SAGE tag count) | CA1 (SAGE tag count) | CA2 (SAGE tag count) | NC1 (SAGE tag count) | NC2 (SAGE tag count)
1 | CCAACACCAG (chemistry not fully specified) | 1 | 0 | 0 | 1 | 9 | 19
2 | CCACTGCACC (chemistry not fully specified) | 5 | 5 | 6 | 14 | 21 | 19
3 | CCAGGGGAGA (chemistry not fully specified) | 24 | 22 | 10 | 20 | 45 | 66
4 | CCATTCCACT (chemistry not fully specified) | 2 | 0 | 0 | 0 | 13 | 1
5 | CCCAACGCGC (chemistry not fully specified) | 3 | 5 | 0 | 2 | 106 | 1
6 | CCCCCGAAGC (chemistry not fully specified) | 3 | 15 | 4 | 8 | 25 | 27
7 | CCCCCGCGGA (chemistry not fully specified) | 6 | 11 | 4 | 12 | 33 | 25
8 | CCCCCTGCAT (chemistry not fully specified) | 0 | 0 | 0 | 0 | 5 | 4
9 | CCCGCCTCTT (chemistry not fully specified) | 3 | 3 | 16 | 1 | 0 | 40
10 | CCCTCCCGAA (chemistry not fully specified) | 9 | 14 | 18 | 7 | 89 | 54
11 | CCGCTGCACT (chemistry not fully specified) | 55 | 46 | 37 | 30 | 127 | 102
12 | CCGGCTTGAG (chemistry not fully specified) | 0 | 0 | 0 | 0 | 7 | 4
13 | CCTCCAGCTA (chemistry not fully specified) | 142 | 125 | 131 | 147 | 715 | 458
14 | CCTCCAGTAC (chemistry not fully specified) | 2 | 3 | 2 | 4 | 20 | 8
15 | CCTGCCCCCC (chemistry not fully specified) | 6 | 3 | 11 | 4 | 20 | 30
16 | CCTGCTGCAG (chemistry not fully specified) | 0 | 1 | 6 | 9 | 7 | 34
17 | CCTGCTTGTC (chemistry not fully specified) | 0 | 3 | 0 | 5 | 20 | 23

Row | Sequence | AD1 (SAGE tag count) | AD2 (SAGE tag count) | CA1 (SAGE tag count) | CA2 (SAGE tag count) | NC1 (SAGE tag count) | NC2 (SAGE tag count)
18 | CCTGGAAGAG (chemistry not fully specified) | 11 | 4 | 12 | 16 | 30 | 26
19 | CCTGTCTGCC (chemistry not fully specified) | 0 | 1 | 1 | 1 | 14 | 22
20 | CCTGTGACAG (chemistry not fully specified) | 0 | 4 | 3 | 1 | 22 | 27
21 | CCTTCAAATC (chemistry not fully specified) | 0 | 0 | 1 | 0 | 29 | 17
22 | CGAGGGGCCA (chemistry not fully specified) | 18 | 18 | 12 | 32 | 110 | 47
23 | CGCTGTGGGG (chemistry not fully specified) | 19 | 8 | 8 | 6 | 58 | 53
24 | CGGACTCACT (chemistry not fully specified) | 5 | 14 | 14 | 10 | 20 | 45
25 | CGGGAGTCGG (chemistry not fully specified) | 13 | 2 | 9 | 1 | 28 | 30
26 | CGGTGGGACC (target site or template, no part of the molecule; chemistry not given here) | 1 | 1 | 3 | 3 | 7 | 14
27 | CGTGGGTGGG (chemistry not fully specified) | 1 | 0 | 0 | 1 | 1 | 10
28 | CTAGCCTCAC (chemistry not fully specified) | 30 | 53 | 36 | 58 | 172 | 90
29 | CTCAGAACTT (chemistry not fully specified) | 1 | 0 | 0 | 0 | 18 | 3
30 | CTGAACCTCC (chemistry not fully specified) | 2 | 0 | 0 | 0 | 5 | 15
31 | CTGACCTGTG (chemistry not fully specified) | 48 | 18 | 16 | 46 | 88 | 130
32 | CTGGATCTGG (chemistry not fully specified; the letters are possibly those of the target site) | 3 | 9 | 5 | 10 | 21 | 21
33 | CTGGCAAAGG (chemistry not fully specified) | 1 | 0 | 0 | 0 | 14 | 22
34 | CTGGCCCTCG (chemistry not fully specified) | 1 | 3 | 15 | 14 | 186 | 52
